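Grown in 96-well plates, cells were treated for 48 hours with each compound at five concentrations. Insufficient inhibition: endpoint recorded as highest concentration tested. At the GI50, growth is halved.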 The source made the active and inactive calls. Cut-off read from the data, not from the text of the source: active = GI50 up to about 1.1 µM and inactive = higher.
Key:
Assay in all cases: NCI-60 cell line screen, 48 h
[1] = tested on: A549
[2] = tested on: NCI-H460
[3] = tested on: RPMI-8226
[4] = tested on: SNB-19
[5] = tested on: LOX IMVI
[6] = tested on: T47D
[7] = tested on: MDA-N
[8] = tested on: SF-268
[9] = tested on: MDA-MB-435
[10] = tested on: SK-MEL-28
[11] = tested on: SR
[12] = tested on: UACC-257
[13] = tested on: UO-31
[14] = tested on: SK-MEL-5
[15] = tested on: CAKI-1
[16] = tested on: OVCAR-5
[17] = tested on: SN12C
[18] = tested on: HL-60
[19] = tested on: EKVX
[20] = tested on: KM12

Measured: GI50

CCCCOC(=O)C(=O)C(CCC(=O)c1ccc(C)cc1)C(=O)C=C(C)C (stereo not given)
inactive: [1] > 100 µM | [2] > 100 µM | [3] > 100 µM | [4] 52.7 µM | [5] > 100 µM | [6] > 100 µM | [7] > 100 µM | [8] > 100 µM | [9] > 100 µM | [10] > 100 µM | [11] > 100 µM | [12] > 100 µM | [13] > 100 µM | [14] > 100 µM | [15] > 100 µM | [16] > 100 µM | [17] > 100 µM | [18] > 100 µM | [19] > 100 µM | [20] > 100 µM

N#CC(NNC(=O)Cc1ccccc1)c1ccccc1O (stereo not given)
inactive: [1] 10.3 µM | [2] 6.84 µM | [3] 6.87 µM | [4] 21.3 µM | [5] 4.98 µM | [6] 2.62 µM | [7] 19.4 µM | [8] 9.04 µM | [9] 27.7 µM | [10] 26.2 µM | [11] 7.29 µM | [12] 14 µM | [13] 4.54 µM | [14] 10.6 µM | [15] 12.6 µM | [16] 26.9 µM | [17] 23.3 µM | [18] 3.35 µM | [19] 8.41 µM | [20] 11.6 µM

Reference: ChEMBL document CHEMBL1201862, “PubChem BioAssay data set” (2004)
